Measurements taken from patent US7332473B2, “Peptides and medicinal compositions containing the same” (priority 2002, dated 2008).
Read-outs that look alike come from different tables or passages of the source. Ends that are not written are not given here.

Assays:
bronchial smooth muscle = assay: Relaxant effect on bronchial smooth muscle (carbachol-constricted trachea, Magnus tank); set-up: species or system Hartley male guinea pigs; settings: carbachol (3×10^−7 M)-induced constriction; peptide 12 cumulative 10^−9 M to 3×10^−6 M, peptides 21 and 23 single 3×10^−6 M; isoproterenol 10^−6 M = 100% relaxation
PC12 cells = type: cell-based, rat
PC-12 cells = assay: Effect of inducing neurite formation; type: cell-based, rat; settings: peptides 100 nM, cultured 3 days, compared to control without peptide and peptide 1
Method: Effect of peptides 1, 4, 12, 21, and 23 for inducing neurite formation were tested in the manner described below. PC-12 cells were cultured in Dulbecco's modified minimum essential medium (DMEM) containing 5% horse serum and 5% fetal calf serum in the presence of 5% CO2 and 95% air at 37° C. Cells were separated from the culture flask with the aid of trypsin, counted using a cytometer, and then the concentration was adjusted to 1.0×10^4 cells/ml. The cell-containing liquid medium was added to a Biocoat type IV collagen-coated 24-well dish in amounts of 1 ml each and then cultured in the presence of 5% CO2 and 95% air at 37° C. for 24 hours. The medium was replaced 24 hours later, and peptides (100 nM) were added at that time. The resultant was continuously cultured for 3 days and then photographed. […] The scale bar in each photograph represents 100 μm.

physchem [1] = type: physicochemical; settings: for remaining at 168 h, 100 μg/ml: buffer
Method: (§1) Adequate amounts of peptides 4, 12, 21, and 23 were fractionated via weighing and then dissolved in phosphate buffers (aqueous solution of 0.001% sodium dihydrogen phosphate) adjusted to pH levels of 6.0 and 7.0 to bring the final concentration to 100 μg/ml. The resulting solutions were allowed to stand in a thermo-hygrostat (LH-20-11, Nagano Kagaku) at 40° C. and 75% RH for a week, and reverse phase HPLC analysis was carried out (wavelength: 220 nm; mobile phase: acetonitrile (29.5%)/trifluoroacetic acid (0.1%); column: ODS-120T (Tosoh); column temperature: 25° C.) to examine the quantities of remaining peptides 4, 12, 21, and 23.

physchem [2] = type: physicochemical; settings: pH 7; for remaining at 240 h, 100 μg/ml / remaining at 480 h, 100 μg/ml / remaining at 720 h, 100 μg/ml: buffer
Method: as §1, with “phosphate buffer (an aqueous” for “phosphate buffers (aqueous”, “adjusted at the” for “adjusted to”, “pH level” for “pH levels”, “of” for “of 6.0 and”, “for 0, 10, 20, and 30 days,” for “for a week,”

physchem [3] = type: physicochemical; settings: pH 7; for remaining at 240 h, 100 μg/ml / remaining at 480 h, 100 μg/ml / remaining at 720 h, 100 μg/ml: buffer or solvent
Method: Adequate amounts of peptides 4, 12, 21, and 23 were fractionated via weighing and then dissolved in distilled water (Otsuka Distilled Water) adjusted at the pH level of 7.0 to bring the final concentration to 100 μg/ml. The resulting solutions were allowed to stand in an incubator at 55° C. (FC-610, Advantec) for 0, 10, 20, and 30 days, respectively, and reverse phase HPLC analysis was carried out (wavelength: 220 nm; mobile phase: acetonitrile (29.5%)/trifluoroacetic acid (0.1%); column: ODS-120T (Tosoh); column temperature: 25° C.) to examine the amount of remaining peptides 4, 12, 21, and 23.

physchem [4] = type: physicochemical; settings: buffer or solvent
Method: Adequate amounts of peptides 4, 12, 21, and 23 were fractionated via weighing and then dissolved in distilled water (Otsuka Distilled Water) adjusted at pH levels of 6.0 and 7.0 to bring the final concentration to 10 μg/ml. The resulting solutions were allowed to stand in an incubator at 55° C. (FC-610, Advantec) for 3 days, and reverse phase HPLC analysis was carried out (wavelength: 220 nm; mobile phase: acetonitrile (29.5%)/trifluoroacetic acid (0.1%); column: ODS-120T (Tosoh); column temperature: 25° C.) to examine the quantities of remaining peptides 4, 12, 21, and 23. […] This was particularly apparent at pH 7.0.

[5] = Stability of peptide 4 in distilled water, 40° C., 24 hours (reverse phase HPLC); type: physicochemical
Method: Peptide 4, a modified peptide, having a higher Arg content than wild-type VIP was weighed and fractionated to about 1 mg, the fractions were dissolved in distilled water adjusted to pH levels of 4.0, 5.0, 6.0, and 7.0 (Otsuka Distilled Water), and the final concentration was adjusted to 10 μg/ml. The resulting solutions were allowed to stand in an incubator at 40° C. (LH20-11M, Nagano Kagaku) for 24 hours, analysis was carried out via reverse phase HPLC (wavelength: 220 nm; mobile phase: 28% acetonitrile/0.1% trifluoroacetic acid; column: ODS-120T (Tosoh); column temperature: 25° C.), and the amount of remaining peptide 4 was examined.

gastric constriction = assay: Inhibitory effect on gastric peristaltic movement (carbachol-constricted isolated stomach, Magnus tank); set-up: species or system ICR mice; settings: test peptides 10^−6 M, carbachol 3×10^−6 M, 15 minutes after drug administration, level of peptide 9 (control drug) = 100
[6] = Helical content from circular dichroism spectra; type: physicochemical; settings: 20 mM Tris-HCl buffer (pH 7.4), calculation by Greenfield et al.
Method: VIP (peptide 1, SEQ ID NO: 2), peptide 7 (SEQ ID NO: 8) corresponding to 25 residues at the N-terminus of VIP, and peptide 8 (SEQ ID NO: 9), which is a peptide 7 derivative with its methionine-17 being oxidized, were dissolved in a 20 mM Tris-HCl buffer (pH 7.4), and the circular dichroism spectra thereof were examined using the Jasco J-720 (Jasco Corporation). According to analytical calculation of higher-order structure by Greenfield et al., the helical content of peptide 1 was about 50% (FIG. 2).

Substance | effect of relaxing the trachea (in words) (bronchial smooth muscle) | neuroprotective effect, viable cell counts (in words) (PC12 cells) | neurite formation (in words) (PC-12 cells) | remaining at 168 h, 100 μg/ml (physchem [1]; pH 6) | stability (in words) (physchem [1]; pH 6) | remaining at 240 h, 100 μg/ml (physchem [2]) | remaining at 480 h, 100 μg/ml (physchem [2]) | remaining at 720 h, 100 μg/ml (physchem [2]) | remaining at 240 h, 100 μg/ml (physchem [3]) | remaining at 480 h, 100 μg/ml (physchem [3]) | remaining at 720 h, 100 μg/ml (physchem [3]) | stability (in words) (physchem [3]) | remaining at 72 h, 10 μg/ml (physchem [4]; pH 6) | remaining at 168 h, 100 μg/ml (physchem [1]; pH 7) | remaining at 72 h, 10 μg/ml (physchem [4]; pH 7) | Level of constriction inhibition (gastric constriction) | further results
H-HSDAVFTANYTRLRRQLAVRRYLAAILGRR-NH2 [Peptide 23] | apparent peptide-addition-dependent effect of relaxing the trachea | significantly higher than that of peptide 1 | significantly induced neurite formation | 100% | significantly improved compared to that of peptide 4 | 98% | 89% | 73% | 62% | 42% | 30% | still remained 30 days later | 100% |  |  |  | 
H-HSDAVFTDNYTRLRRQLAVRRYLAAILGRR-NH2 [Peptide 12] | apparent peptide-addition-dependent effect of relaxing the trachea | significantly higher than that of peptide 1 | significantly induced neurite formation | 100% | significantly improved compared to that of peptide 4 | 84% | 86% | 73% | 49% | 34% | 18% | still remained 30 days later | 94% | 90% | 100% |  | 
H-HSDAVFTDNYTRLRRQLAVRRYLNSILNGRR-NH2 [Peptide 4, reference compound] |  | significantly higher than that of peptide 1 | significantly induced neurite formation | 53% |  | 28% | 13% |  | 0% | 0% | 0% | completely disappeared after storage for 10 days |  | 35% | 67% |  | stability (in words) (physchem [2]): disappeared 30 days later; remaining at 24 h ([5]; buffer or solvent, pH 5.0, distilled water, 10 μg/ml, 40° C., read-out: Amount of remaining peptide): 90%; peptide degradation (in words) ([5]; distilled water pH 4.0 to 7.0, 40° C.): peptide degradation was significant at around the neutral pH region; remaining at 24 h, 10 μg/ml ([5]; pH 4.0, distilled water, 10 μg/ml, 40° C., read-out: Amount of remaining peptide): 91%; remaining at 24 h, 10 μg/ml ([5]; pH 6.0, distilled water, 10 μg/ml, 40° C., read-out: Amount of remaining peptide): 93%; remaining at 24 h, 10 μg/ml ([5]; pH 7.0, distilled water, 10 μg/ml, 40° C., read-out: Amount of remaining peptide): 84%
H-HSDAVFTENYTRLRRQLAVRRYLAAILGRR-NH2 [Peptide 21] | apparent peptide-addition-dependent effect of relaxing the trachea | significantly higher than that of peptide 1 | significantly induced neurite formation | 100% | significantly improved compared to that of peptide 4 | 100% | 76% | 59% | 29% | 45% | 10% | still remained 30 days later | 93% | 87% | 100% |  | 
His-Ser-Asp-Ala-Val-Phe-Thr-Asp-Asn-Tyr-Thr-Arg-Leu-Arg-Arg-Gln-Leu-Ala-Val-Arg-Arg-Tyr-Leu-NH2 (HSDAVFTDNYTRLRRQLAVRRYL-NH2) [Peptide 10] |  |  |  |  |  |  |  |  |  |  |  |  |  |  |  | 227 | 
His-Ser-Asp-Ala-Val-Phe-Thr-Asp-Asn-Tyr-Thr-Arg-Leu-Arg-Lys-Gln-Leu-Ala-Val-Lys-Lys-Tyr-Leu-NH2 (HSDAVFTDNYTRLRKQLAVKKYL-NH2) [Peptide 9, reference compound] |  |  |  |  |  |  |  |  |  |  |  |  |  |  |  | 100 | 
His-Ser-Asp-Ala-Val-Phe-Thr-Asp-Asn-Tyr-Thr-Arg-Leu-Arg-Lys-Gln-Met-Ala-Val-Lys-Lys-Tyr-Leu-Asn-Ser-Ile-Leu-Asn-NH2 [Peptide 1, reference compound] |  | significant neuroprotective effects |  |  |  |  |  |  |  |  |  |  |  |  |  |  | helical content [6]: about 50%
His-Ser-Asp-Ala-Val-Phe-Thr-Asp-Asn-Tyr-Thr-Arg-Leu-Arg-Lys-Gln-Met-Ala-Val-Lys-Lys-Tyr-Leu-Asn-Ser-NH2 (HSDAVFTDNYTRLRKQMAVKKYLNS-NH2) [Peptide 7, corresponding to 25 residues at the N-terminus of VIP] |  |  |  |  |  |  |  |  |  |  |  |  |  |  |  |  | helical content [6]: would retain a good deal of such higher-order structure
His-Ser-Asp-Gly-Ile-Phe-Thr-Asp-Ser-Tyr-Ser-Arg-Tyr-Arg-Arg-Gln-Leu-Ala-Val-Arg-Arg-Tyr-Leu-NH2 (HSDGIFTDSYSRYRRQLAVRRYL-NH2) [Peptide 33] |  |  |  |  |  |  |  |  |  |  |  |  |  |  |  | 160 | 
